Data as given in patent publication US8067669B2, “Method for inducing resistance to fungal infection in transgenic plants using plant defense peptides” (The Curators Of The University Of Missouri, priority 2000, dated 2011).

Columns and labels:
[1] = system: P. capsici zoospores; test: Encystment assay with phage-displayed peptides; assay type: cell-based, Phytophthora capsici; conditions: phage 2.5×10^9 virion; 20 minute incubation at room temperature
Description: Following binding, the pathogen is observed for alterations in its development or ability to infect a host. […] The range of phage concentrations can vary, but generally ranges between 1 to 10×10^9 virion/μl. A negative control containing no phage is included in each screening. After an incubation period of usually about 20 minutes at room temperature, the number of zoospores encysted at each phage concentration is determined. Using this method it is possible to rationally select peptides of defined character and evaluate them for species- and life stage-specific induction of receptor-mediated functional responses, such a zoospore encystment. Peptides found to interfere with the development of a pathogen can be used to prevent or limit infection of a host with the pathogen.
Selected phage clones were isolated according to Smith and Scott (Methods in Enzymology, 217:228-257, 1993), and twice purified using polyethylene glycol as described above with the exception that phage were resuspended in distilled water instead of TBS. The virion concentration was calculated by measuring the absorbance at A269 (Smith and Scott, Methods in Enzymology, 217:228-257, 1993). Water droplets of approximately 20 μl containing about 400 freshly released zoospores were incubated with phage at two-fold serial dilutions so that they contained phage-bearing peptides at concentrations of either 1×10^10, 5×10^9, 2.5×10^9 or 1.25×10^9 virion/μl of droplet. A negative control received no phage and was used to monitor the amount of spontaneous encystment in the zoospore population. After a 20 minute incubation at room temperature, the number of encysted zoospores was counted using a microscope at 100× magnification. The virion concentration of phage was calculated according to Smith and Scott (Methods in Enzymology, 217:228-257, 1993).

[2] = system: P. capsici zoospores; test: Binding of phage-displayed peptides to zoospores (eluted phage titered as TU); set-up: species or system Phytophthora capsici; conditions: 5×10^10 TU phage with 200,000 zoospores, 30 minutes incubation
Description: An aliquot of 10^11 transducing units (TU) from the f8-1 library (Petrinko et al., Protein Engineering, 9:797-801, 1996) was added to 10^6 freshly released P. capsici zoospores at room temperature in 4 ml of 50 mM LiCl and incubated for 30 minutes at room temperature with gentle agitation. The same procedure was used for the 188-4 library except in some cases P. sojae zoospores were used (Soj clones). The zoospores containing the bound phage were washed 10 times in 150 μl of 50 mM LiCl and centrifuged at 1000×g for 45 seconds to remove unbound phage. After the tenth wash, the bound phage were eluted with 200 μl of elution buffer (0.1 N HCl, glycine sufficient to bring pH to 2.2, 1 mg/ml bovine serum albumin). […] Selective enrichment of the zoospore-binding phage was monitored by calculating the percent yield after each round of selection as described in Smith and Scott (Methods in Enzymology, 217:228-257, 1993). This was done by calculating the total phage (expressed as transducing units) that was applied to the zoospores and measuring the total output of phage (as transducing units) that was recovered from the zoospores and expressing the result as a percentage. […]
Phage vector was included as a control treatment. […] Phage eluted from the zoospore population were titered in E. coli K91BluKan cells and expressed as total transducing units. […]

[3] = system: P. capsici cysts; test: Binding of phage-displayed peptides to cysts (eluted phage titered as TU); set-up: species or system Phytophthora capsici; conditions: 5×10^10 TU phage
[4] = system: U. appendiculatus; test: Inhibition of germling (germinated uredospore) growth; assay type: cell-based, Uromyces appendiculatus; conditions: phage-peptide clones, ~250 germinated spores with 3×10^12 at 20 C overnight; listed as clone 19
Excerpt: Part D entails the generation of additional Sub-libraries by use of further rounds of biopanning including rounds 2, 3 and 4. Part B is repeated three times: • 1. For biopanning round 2, 4.2×10^11 TU phages from the 2nd Sub-library are used to produce Sub-library 3; • 2. For biopanning round 3, 5.6×10^11 TU phages amplified from the 2nd biopanning are used to produce Sub-library 4; and • 3. For biopanning round 4, 5.1×10^11 TU phages amplified from the 3rd biopanning are used to produce Sub-library 5. Colonies from biopanning-round 4 are picked, sequenced, and tested for inhibition of germling growth.
Part E entails testing for inhibition of uredospore growth. Incubate 30 ul of germinated spores (˜250) with 3×10^12 at 20 C overnight. Assess fungal germ tube growth (i.e. germling growth) and compare with water and f88, i.e. phage only without any display peptide, as controls.

ADITDPMGA (Random peptide insert) [Pc64]
level of encystment of P. capsici zoospores [1]: high levels of encystment

AVSPNVHDG (Random peptide insert) [Pc42]
level of encystment of P. capsici zoospores [1]: high levels of encystment

ADRPSMSPT (Random peptide insert) [Pc87]
phage eluted from zoospores [2]: More than 10^7 TU
phage eluted from cysts [3]: less than 10^4 TU
level of encystment of P. capsici zoospores [1]: high levels of encystment

AGLTSPNDM (Random peptide insert) [Pc15B]
level of encystment of P. capsici zoospores [1]: low levels of encystment

NHVSTLKTRHRLIPF (Random peptide insert) [Pp 19]
growth inhibition of U. appendiculatus (germlings) [4]: inhibition

AEHQNSAGP (Random peptide insert) [Pc45]
phage eluted from zoospores [2]: about 50,000 TU
level of encystment of P. capsici zoospores [1]: low levels of encystment

ADPPRTVST (Random peptide insert) [Pc78]
level of encystment of P. capsici zoospores [1]: high levels of encystment

AAPDLQDAM (Random peptide insert) [Pc56]
level of encystment of P. capsici zoospores [1]: low levels of encystment
